# Data reported in patent US20240287124A1, “PRODRUGS OF 4'-SUBSTITUTED NUCLEOSIDE REVERSE TRANSCRIPTASE INHIBITORS” (Merck Sharp & Dohme LLC, priority 2023, published 2024).
# Columns and labels:
# [1] = tested on: HIV-1 wild-type (R8) virus; test: Viral KINetics in Green cells (VIKING) assay, HIV-1 replication in MT4-GFP reporter cells; type: cell-based; conditions: Human immunodeficiency virus 1, 10% normal human serum, MT4-GFP cells, HIV-1 wild-type (R8); read-out: Viking (10% NHS), IC50
# Method in brief: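 Compounds in 3-fold, 10-point series (typical 4 μM-0.2 nM) in 10% normal human serum received MT4 GFP-reporter T cells pre-infected overnight with wild-type R8 virus (MOI ~0.01). Ratio of GFP-positive cells at 72 vs 48 h defined replication; IC50 from nonlinear 4-parameter dose-response fitting.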
# [2] = Aqueous solubility in PBS, pH 7.4; type: physicochemical; conditions: phosphate buffered saline, pH 7.4, aqueous buffer, thermodynamic from solid, pH 7.4 phosphate buffered saline, 24 hours, amorphous or crystalline material; read-out: Aqu. Solubility
# Experimental: Aqueous solubility of the compounds was determined by suspending excess solid (typically 0.3-0.5 mg) in PBS, pH 7.4, at a concentration of 0.5 mg/mL. The suspension was vortexed for 10-30 seconds to wet the material and stirred at 600 rpm for 24 hours. For analysis by UPLC, 150 μL aliquot sample was transferred into a […] PVDF spin filter and centrifuged at 14,000 rpm for 5 minutes. 100 μL of the filtrate was diluted with 100 μL 1:1 Acetonitrile (ACN):H2O. The resultant samples were analyzed using UPLC and quantified against a standard curve of the compound of interest dissolved in 1:1 ACN:H2O. The retains of the solids were checked by XRPD and PLM to determine if the phase of the material was crystalline or amorphous.
Compound,IC50 [1],solubility at 24 h [2]
"C#C[C@]1(COC(=O)Cc2ccc(Cl)cc2)O[C@@H](n2ccc3c(N)nc(Cl)nc32)C[C@@H]1OC(=O)Cc1ccc(Cl)cc1 [Example 34, (2R,3S,5R)-5-(4-amino-2-chloro-7H-pyrrolo[2,3-d]pyrimidin-7-yl)-2-((2-(4-chlorophenyl)acetoxy)methyl)-2-ethynyltetrahydrofuran-3-yl 2-(4-chlorophenyl)acetate]",6.1 nM,< 1 µg/mL
"C#C[C@]1(CO)O[C@@H](n2ccc3c(N)nc(Cl)nc32)C[C@@H]1OC(=O)CCCc1ccccc1 [Example 60, (2R,3S,5R)-5-(4-amino-2-chloro-7H-pyrrolo[2,3-d]pyrimidin-7-yl)-2-ethynyl-2-(hydroxymethyl)tetrahydrofuran-3-yl 4-phenylbutanoate]",3.5 nM,< 1 µg/mL
C#C[C@]1(COC(=O)CCCC)O[C@@H](n2ccc3c(N)nc(Cl)nc32)C[C@@H]1OC(=O)OC [Example 189],19 nM,23 µg/mL
C#C[C@]1(COC(=O)c2ccccn2)O[C@@H](n2ccc3c(N)nc(Cl)nc32)C[C@@H]1O [Example 50],1.6 nM,239 µg/mL
C#C[C@]1(CO)O[C@@H](n2ccc3c(N)nc(Cl)nc32)C[C@@H]1OC(=O)CCCC[C@@H]1SC[C@@H]2NC(=O)N[C@@H]21 [Example 184],57 nM,161 µg/mL
"C#C[C@]1(COC(=O)CCCCCCCCC)O[C@@H](n2ccc3c(N)nc(Cl)nc32)C[C@@H]1OC(=O)CC [Example 47, ((2R,3S,5R)-5-(4-amino-2-chloro-7H-pyrrolo[2,3-d]pyrimidin-7-yl)-2-ethynyl-3-(propionyloxy)tetrahydrofuran-2-yl)methyl decanoate]",34 nM,< 1 µg/mL
C#C[C@]1(CO)O[C@@H](n2ccc3c(N)nc(Cl)nc32)C[C@@H]1OC(C)=O [Example 180],27 nM,257 µg/mL
C#C[C@]1(COC(=O)OCc2ccccc2)O[C@@H](n2ccc3c(N)nc(Cl)nc32)C[C@@H]1OC(=O)OCc1ccccc1 [Example 214],4.7 nM,< 1 µg/mL
C#C[C@]1(COC(=O)CCCCC)O[C@@H](n2ccc3c(N)nc(Cl)nc32)C[C@@H]1OC(=O)CC [Example 188],17 nM,2.4 µg/mL
C#C[C@]1(COC(=O)OCc2cc[nH]c(=O)c2)O[C@@H](n2ccc3c(N)nc(Cl)nc32)C[C@@H]1OC(=O)OCc1ccccc1 [Example 161],5.8 nM,< 1 µg/mL
C#C[C@]1(CO)O[C@@H](n2ccc3c(N)nc(Cl)nc32)C[C@@H]1OC(=O)CCC12CC3CC(CC(C3)C1)C2 [Example 30],3.6 nM,< 1 µg/mL
"C#C[C@]1(CO)O[C@@H](n2ccc3c(N)nc(Cl)nc32)C[C@@H]1OC(=O)CCCCC [Example 59, (2R,3S,5R)-5-(4-amino-2-chloro-7H-pyrrolo[2,3-d]pyrimidin-7-yl)-2-ethynyl-2-(hydroxymethyl)tetrahydrofuran-3-yl hexanoate]",2.8 nM,16 µg/mL
C#C[C@]1(COC(=O)OCC23CC4CC(CC(C4)C2)C3)O[C@@H](n2ccc3c(N)nc(Cl)nc32)C[C@@H]1O [Example 115],5.7 nM,< 1 µg/mL
C#C[C@]1(COC(=O)[C@@H](C)c2ccccc2)O[C@@H](n2ccc3c(N)nc(Cl)nc32)C[C@@H]1O [Example 101],3.4 nM,19 µg/mL
"C#C[C@]1(CO)O[C@@H](n2ccc3c(NC(=O)c4ccccc4)nc(Cl)nc32)C[C@@H]1O [Example 19, N-(2-chloro-7-((2R,4S,5R)-5-ethynyl-4-hydroxy-5-(hydroxymethyl)tetrahydrofuran-2-yl)-7H-pyrrolo[2,3-d]pyrimidin-4-yl)benzamide]",382 nM,34 µg/mL
C#C[C@]1(CO)O[C@@H](n2ccc3c(N)nc(Cl)nc32)C[C@@H]1OC(=O)CCc1ccccc1 [Example 81],3.3 nM,2 µg/mL
"C#C[C@]1(CO)O[C@@H](n2ccc3c(N)nc(Cl)nc32)C[C@@H]1OC(=O)OCCCCCC [Example 61, (2R,3S,5R)-5-(4-amino-2-chloro-7H-pyrrolo[2,3-d]pyrimidin-7-yl)-2-ethynyl-2-(hydroxymethyl)tetrahydrofuran-3-yl hexyl carbonate]",4.5 nM,< 1 µg/mL
C#C[C@]1(CO)O[C@@H](n2ccc3c(N)nc(Cl)nc32)C[C@@H]1OC(=O)OCCOC(C)=O [Example 156],3.2 nM,66 µg/mL

Compound,IC50 [1],solubility at 24 h [2]
C#C[C@]1(COC(=O)CC2CCCCC2)O[C@@H](n2ccc3c(N)nc(Cl)nc32)C[C@@H]1O [Example 182],3.1 nM,124 µg/mL
C#C[C@]1(COC(=O)OCc2ccn(C)c(=O)c2)O[C@@H](n2ccc3c(N)nc(Cl)nc32)C[C@@H]1OC(=O)OCc1ccn(C)c(=O)c1 [Example 226],13 nM,19 µg/mL
C#C[C@]1(COC(=O)CCCC)O[C@@H](n2ccc3c(N)nc(Cl)nc32)C[C@@H]1OC(=O)OCC [Example 146],19 nM,7 µg/mL
"C#C[C@]1(COC(=O)OCc2ccccc2)O[C@@H](n2ccc3c(N)nc(Cl)nc32)C[C@@H]1OC(=O)OCCCCCC [Example 68, ((2R,3S,5R)-5-(4-amino-2-chloro-7H-pyrrolo[2,3-d]pyrimidin-7-yl)-2-ethynyl-3-(((hexyloxy)carbonyl)oxy)tetrahydrofuran-2-yl)methylbenzyl carbonate]",6.5 nM,< 1 µg/mL
C#C[C@]1(CO)O[C@@H](n2ccc3c(N)nc(Cl)nc32)C[C@@H]1OC(=O)OCCCCCCC [Example 153],3.8 nM,< 1 µg/mL
"C#C[C@]1(CO)O[C@@H](n2ccc3c(N)nc(Cl)nc32)C[C@@H]1OC(=O)OCCCCCCCCC [Example 38, (2R,3S,5R)-5-(4-amino-2-chloro-7H-pyrrolo[2,3-d]pyrimidin-7-yl)-2-ethynyl-2-(hydroxymethyl)tetrahydrofuran-3-yl nonyl carbonate]",8 nM,< 1 µg/mL
C#C[C@]1(COC(=O)CCCC[C@@H]2SC[C@@H]3NC(=O)N[C@@H]32)O[C@@H](n2ccc3c(N)nc(Cl)nc32)C[C@@H]1OC(=O)CCCc1ccccc1 [Example 190],6.5 nM,< 1 µg/mL
"C#C[C@]1(CO)O[C@@H](n2ccc3c(N)nc(Cl)nc32)C[C@@H]1OC(=O)OCCCCC [Example 13, (2R,3S,5R)-5-(4-amino-2-chloro-7H-pyrrolo[2,3-d]pyrimidin-7-yl)-2-ethynyl-2-(hydroxymethyl)tetrahydrofuran-3-yl pentyl carbonate]",2.2 nM,1.9 µg/mL
C#C[C@]1(COC(=O)CCCCC)O[C@@H](n2ccc3c(N)nc(Cl)nc32)C[C@@H]1OC(C)=O [Example 185],17 nM,4.2 µg/mL
"C#C[C@]1(CO)O[C@@H](n2ccc3c(N)nc(Cl)nc32)C[C@@H]1OC(=O)CCCCCCCCC [Example 4, (2R,3S,5R)-5-(4-amino-2-chloro-7H-pyrrolo[2,3-d]pyrimidin-7-yl)-2-ethynyl-2-(hydroxymethyl)tetrahydrofuran-3-yl decanoate]",2.9 nM,< 1 µg/mL
"C#C[C@]1(CO)O[C@@H](n2ccc3c(N)nc(Cl)nc32)C[C@@H]1OC(=O)C(CCC)CCC [Example 52, (2R,3S,5R)-5-(4-amino-2-chloro-7H-pyrrolo[2,3-d]pyrimidin-7-yl)-2-ethynyl-2-(hydroxymethyl)tetrahydrofuran-3-yl 2-propylpentanoate]",337 nM,2.4 µg/mL
C#C[C@]1(COC(=O)CC(C)(C)C)O[C@@H](n2ccc3c(N)nc(Cl)nc32)C[C@@H]1O [Example 89],29 nM,365 µg/mL
C#C[C@]1(CO)O[C@@H](n2ccc3c(NC(=O)CCc4ccccc4)nc(Cl)nc32)C[C@@H]1O [Example 200],155 nM,307 µg/mL
C#C[C@]1(COC(=O)[C@H](C)c2ccccc2)O[C@@H](n2ccc3c(N)nc(Cl)nc32)C[C@@H]1O [Example 100],2.5 nM,72 µg/mL
"C#C[C@]1(COC(=O)Cc2ccc(F)cc2)O[C@@H](n2ccc3c(N)nc(Cl)nc32)C[C@@H]1O [Example 37, ((2R,3S,5R)-5-(4-amino-2-chloro-7H-pyrrolo[2,3-d]pyrimidin-7-yl)-2-ethynyl-3-hydroxytetrahydrofuran-2-yl)methyl 2-(4-fluorophenyl)acetate]",2.3 nM,118 µg/mL
"C#C[C@]1(CO)O[C@@H](n2ccc3c(N)nc(Cl)nc32)C[C@@H]1OC(=O)OCCC12CC3CC(CC(C3)C1)C2 [Example 36, 2-(adamantan-1-yl)ethyl ((2R,3S,5R)-5-(4-amino-2-chloro-7H-pyrrolo[2,3-d]pyrimidin-7-yl)-2-ethynyl-2-(hydroxymethyl)tetrahydrofuran-3-yl) carbonate]",5.5 nM,< 1 µg/mL
"C#C[C@]1(COC(=O)CCCCCCCCCCCCCCC)O[C@@H](n2ccc3c(N)nc(Cl)nc32)C[C@@H]1O [Example 16, ((2R,3S,5R)-5-(4-amino-2-chloro-7H-pyrrolo[2,3-d]pyrimidin-7-yl)-2-ethynyl-3-hydroxytetrahydrofuran-2-yl)methyl palmitate]",5.6 nM,< 1 µg/mL
